Assays:
NADH = NADH autofluorescence in SAN cells; type: cell-based, mouse; details: Ru360 dialysis
Experimental: (§1) SAN cells were placed in Tyrode's solution at 36±0.5° C. and were identified by their characteristic morphology (spindle or spider shape) and spontaneous activity. SAN cells were identified electrophysiologically by spontaneous action potentials with a slow depolarizing phase 4 and the hyperpolarization-activated current (If).^27 Spontaneous action potentials, If and ICa were recorded using the perforated (amphotericin B or β-escin in studies requiring dialysis of Ru360 and/or ATP) patch-clamp technique^28 on single SAN cells at 36±0.5° C. in Tyrode's solution. Intracellular Ca^2+ transients were recorded from single SAN cells using Fura-2 AM excited at 340 nm and 380 nm and emitted and 510 nm. Endogenous NADH from single SAN cells was measured by excitation at 350 nm and recording emitted light at 460 nm.^29 Mitochondrial Ca^2+ was measured at 535 nm from mt-pericam expressing SAN cells exited at 415 nm^20. Mitochondrial Ca^2+ entry was measured in cell membrane permeabilized cardiomyocytes isolated from DN-MCU transgenic, wild type mice and from HEK293 cells using Calcium green-5N^30.
The autofluorescence of endogenous NADH, which derives primarily from mitochondria,^29,35 was measured as described^29. NADH was excited at 350 nm (AT350/SOX, Chroma) and fluorescence was recorded at 460 nm (ET460/50m and T400LP, Chroma). […]

[1] = test system: sinoatrial nodal (SAN) pacemaker cells; assay: Spontaneous action potential rate of single SAN cells (perforated patch clamp); type: cell-based, mouse
Experimental: as §1
Isolation of single SAN cells from mice was performed according to previously published methods^22, 27, 31 with minor modifications. Mice were administered an intraperitoneal injection of avertin (20 μl/g) and monitored until unresponsive. The heart was excised and placed into Tyrode's solution (35° C.), consisting of (mM) 140 NaCl, 5.0 HEPES, 5.5 Glucose, 5.4 KCl, 1.8 CaCl2, and 1.0 MgCl2. The pH was adjusted to 7.4 with NaOH. […] The SAN was cut into smaller pieces, which were transferred and rinsed in a solution containing (mM) 140 NaCl, 5.0 HEPES, 5.5 Glucose, 5.4 KCl, 0.2 CaCl2, 0.5 MgCl2, 1.2 KH2PO4, 50 Taurine and 1 mg/ml bovine serum albumin (BSA), with pH adjusted to 7.4 using NaOH. SAN tissue pieces were digested in 5 ml of solution containing collagenase type I, elastase (Worthington), and protease type XIV (Sigma) for 20-30 min. The tissue was transferred to 10 ml of Kraft-Bruhe (KB) medium containing (mM) 100 potassium glutamate, 5.0 HEPES, 20 Glucose, 25 KCl, 10 potassium aspartate, 2.0 MgSO4, 10 KH2PO4, 20 taurine, 5 creatine, 0.5 EGTA, and 1 mg/ml BSA, with pH adjusted to 7.2 using KOH. The tissue was agitated using a glass pipette for 10 min. The cells were stored at 4° C. and studied within 7 hours.
SAN cells were placed in Tyrode's solution at 36±0.5° C. SAN cells were identified by their characteristic morphology (spindle or spider shape) and spontaneous activity in all single cell experiments. SAN cells were also identified electrophysiologically by typical spontaneous action potentials with slow depolarizing phase 4 and the hyperpolarization-activated current (If) in electrophysiological experiments.
Spontaneous action potentials (APs) and If were recorded using the perforated (amphotericin B or β-escin) patch-clamp technique^28 on single SAN cell at 36±0.5° C. in Tyrode's solution (0.5 mM BaCl2 was added to the bath solution when recording If^32). The pipette was filled with (mM) 130 potassium aspartate, 10 NaCl, 10 HEPES, 0.04 CaCl2, amphotericin B 240 μg/ml with pH adjusted to 7.2 with KOH. SAN cells with stable APs lasting at least 5 min were included in the experiments. β-escin 25 μM was substituted for amphotericin B to allow dialysis of Ru360 or ATP. When recording If, membrane potential was held at −35 mV, the voltage steps were applied for 5 s ranging from −125 mV to −45 mV in 10 mV increments or vice versa.^33 ICa was measured using the perforated patch technique at […] as previously described.^22 ICa was confirmed by its sensitivity to Nifedipine 5 μM. Depolarizing voltage pulses (300 ms in duration) to various potentials (−60 mV to 60 mV in 10 mV step) were applied after 50 ms at −40 mV to inactivate INa from a holding potential of −70 mV. […]

(μ)[(HCO2)(NH3)4Ru]2OCl3) [Ru360]
ISO-induced increase in NADH fluorescence (NADH): prevented | Basal SAN cell rates ([1]; dialysis, no ISO): neither Ru360 nor ATP had any affect | SAN cell action potential frequency increases to ISO ([1]; freshly isolated SAN cells dialyzed with Ru360 5 μM, vs cells without Ru360): significantly reduced

Reference: US20160095837A1, “MODULATION OF MITOCHONDRIAL CALCIUM UNIPORTER ACTIVITY FOR TREATING AND PREVENTING ARRHYTHMIAS” (priority 2014, published 2016)
